Measurements taken from PMC12218921, “An adaptive peptide-binding site in ubiquitin receptor hRpn13 revealed by structural studies” (Nature Communications, 2025).

Biological target: T1, hRpn13_ΔMTT (Homo sapiens, UniProt Q16186)
T1 construct: recombinant plasmid of hRpn13 Pru (1–150) cloned into the pRSET vector; GST (N, cleaved yes); residual Gly-Ser (^cG-^dS) left after cleavage; made in house; host or cells: Escherichia coli BL21 (DE3); pGEX-4T-1 plasmid synthesized by GenScript (Addgene 237412)
T1 sequence (Q16186 4-150, stated change not applied): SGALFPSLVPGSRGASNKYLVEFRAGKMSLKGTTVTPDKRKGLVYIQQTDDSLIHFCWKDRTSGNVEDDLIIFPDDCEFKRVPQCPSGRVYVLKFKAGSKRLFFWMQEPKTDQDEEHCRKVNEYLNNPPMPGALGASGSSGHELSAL
Test: 1H-15N HSQC NMR titration / chemical shift perturbation (CSP), 0.1 mM 15N-labeled hRpn13_ΔMTT with unlabeled peptide
Assay type: binding
Conditions: 20-fold molar excess peptide
Procedure: The similar spectral effects by adding ENT or ENT_M1S is readily apparent by quantifying and plotting the shifting across the Pru amino acid sequence (Supplementary Fig. 10b, c).
All ^1H-^15N HSQC experiments were acquired on samples dissolved in NMR buffer (20 mM sodium phosphate, pH 6.5, 50 mM NaCl, 1 mM TCEP, 10% D2O) unless specified, in which case 2 mM DTT replaced TCEP. The samples were purified in DTT-containing buffer and then exchanged into NMR buffer by using Zeba Protein Desalting columns (Thermo Fisher Scientific). The pH was measured and adjusted to 6.5. All NMR experiments were performed at 25 °C on a Bruker Advance 600 MHz spectrometer equipped with a cryogenically cooled probe. The data were processed by NMRpipe[46] (version 11.5) and spectra visualized and analyzed with NMR-FAM-SPARKY[47] (version 3.190) by using previous chemical shift assignments[12],[23] and NMRbox[48]. The amide nitrogen and hydrogen chemical shift perturbations (CSP) were mapped for each amino acid according to Eq. 1.1 CSP=0.2ΔδN2+ΔδH2
ΔδH, change in amide proton value (in parts per million); ΔδN, change in amide nitrogen value (in parts per million).
Supplementary Figure 9: 2D NMR experiments indicate ENT binding to hRpn13 Pru. a) ^1H-^15N HSQC spectrum of 0.1 mM ^15N-labeled hRpn13 (1-150, black) or hRpn13_ΔMTT (green). Select residues are labeled with amino acids in the Pru helix, proteasome binding region, and termini in blue, purple, and orange, respectively. Arrows indicate direction of shifting. b, c) ^1H-^15N HSQC spectra of 0.1 mM of ^15N-labeled hRpn13_ΔMTT alone (black) or with ENT present at equimolar (red), 2-fold (orange), 5-fold (yellow), 10-fold (green), 15-fold (blue), or 20-fold (purple) molar excess. […] All spectra were acquired at 600 MHz and 25°C in 20 mM sodium phosphate, pH 6.5, 100 mM NaCl, 1 mM TCEP, 10% D2O. ppm, part per million.

With “GPGSSTT [ENT_M1S, ENT M1 replaced with serine]” the “CSP A6” value was 0.001673, the “CSP A28” value was 0.004472 and the “CSP A100” value was 0.001095. The “CSP A136” value was 0.001, the “CSP A139” value was 0.001342 and the “CSP A149” value was 0.001342. The “CSP C60” value was 0.004494, the “CSP C80” value was 0.0004472 and the “CSP C88” value was 0.005727. For the same substance, the “CSP C121” value was 0.01167, the “CSP D41” value was 0.0008944 and the “CSP D53” value was 0.002049. The “CSP D54” value was 0.003347, the “CSP D63” value was 0.004919 and the “CSP D71” value was 0.004147. For the same substance, the “CSP D72” value was 0.004583, the “CSP D78” value was 0.00502 and the “CSP D79” value was 0.004472. The “CSP D115” value was 0.005385, the “CSP D117” value was 0.02256 and the “CSP E25” value was 0.004472. The “CSP E70” value was 0.002683, the “CSP E81” value was 0.003715 and the “CSP E111” value was 0.01001. For the same substance, the “CSP E118” value was 0.03156, the “CSP E119” value was 0.0177 and the “CSP E146” value was 0.005177. The “CSP F8” value was 0.0004472, the “CSP F26” value was 0.01613 and the “CSP F59” value was 0.004583. The “CSP F76” value was 0.008012, the “CSP F82” value was 0.002683 and the “CSP F98” value was 0.005459. For the same substance, the “CSP F106” value was 0.003715, the “CSP F107” value was 0.002049 and the “CSP G5” value was 0. For the same substance, the “CSP G17” value was 0.002236, the “CSP G29” value was 0.0008944 and the “CSP G45” value was 0.003715. For the same substance, the “CSP G67” value was 0.005899, the “CSP G91” value was 0.001673 and the “CSP G101” value was 0.001789. For the same substance, the “CSP G135” value was 0.002049, the “CSP G138” value was 0.002049 and the “CSP G141” value was 0.001789. The “CSP G144” value was 0.0008944, the “CSP H58” value was 0.00743 and the “CSP H120” value was 0.04026. For the same substance, the “CSP H145” value was 0.04954, the “CSP I49” value was 0.003286 and the “CSP I57” value was 0.003286. For the same substance, the “CSP I75” value was 0, the “CSP K21” value was 0.001095 and the “CSP K30” value was 0.007668. For the same substance, the “CSP K34” value was 0.002049, the “CSP K42” value was 0.002191 and the “CSP K62” value was 0.001789. For the same substance, the “CSP K83” value was 0.00634, the “CSP K97” value was 0.001 and the “CSP K99” value was 0.002049. For the same substance, the “CSP K103” value was 0.001673, the “CSP K113” value was 0.004472 and the “CSP K123” value was 0.00743. For the same substance, the “CSP L7” value was 0.001, the “CSP L11” value was 0.0008944 and the “CSP L23” value was 0.001095. For the same substance, the “CSP L33” value was 0.002408, the “CSP L46” value was 0.002049 and the “CSP L56” value was 0.004099. The “CSP L73” value was 0.002049, the “CSP L96” value was 0.0004472 and the “CSP L105” value was 0.001095. For the same substance, the “CSP L128” value was 0.003131, the “CSP L137” value was 0.001673 and the “CSP L147” value was 0.004494. For the same substance, the “CSP L150” value was 0.001673, the “CSP M31” value was 0 and the “CSP M109” value was 0.003286. The “CSP M133” value was 0.002, the “CSP N20” value was 0 and the “CSP N68” value was 0.001789. The “CSP N125” value was 0.003347, the “CSP N129” value was 0.003 and the “CSP N130” value was 0.002683. The “CSP Q50” value was 0.001095, the “CSP Q51” value was 0.001 and the “CSP Q87” value was 0.008295. The “CSP R16” value was 0, the “CSP R27” value was 0.008112 and the “CSP R43” value was 0.0008944. For the same substance, the “CSP R64” value was 0.003, the “CSP R84” value was 0 and the “CSP R92 backbone” value was 0.002449. The “CSP R92 sidechain” value was 0.01312, the “CSP R104” value was 0.004099 and the “CSP R122” value was 0.006768. The “CSP S4” value was 0.003715, the “CSP S10” value was 0.001 and the “CSP S15” value was 0.002236. For the same substance, the “CSP S19” value was 0.002049, the “CSP S32” value was 0.001095 and the “CSP S55” value was 0.001342. For the same substance, the “CSP S66” value was 0.001, the “CSP S102” value was 0.001342 and the “CSP S140” value was 0.001095. The “CSP S142” value was 0.001342, the “CSP S143” value was 0.002049 and the “CSP S148” value was 0.0004472. The “CSP T36” value was 0.001342, the “CSP T37” value was 0.002191 and the “CSP T39” value was 0.002683. For the same substance, the “CSP T52” value was 0.001095, the “CSP T65” value was 0.001342 and the “CSP T114” value was 0.01524. For the same substance, the “CSP V12” value was 0.002049, the “CSP V24” value was 0 and the “CSP V47” value was 0.002683. The “CSP V69” value was 0.003715, the “CSP V93” value was 0.006542 and the “CSP V95” value was 0.003131. The “CSP V124” value was 0.007759, the “CSP W61” value was 0.009165 and the “CSP W108” value was 0.004025. For the same substance, the “CSP Y22” value was 0.001095, the “CSP Y48” value was 0.002864 and the “CSP Y94” value was 0.002449. For the same substance, the “CSP Y127” value was 0.004382.
